Values after ≈ are worked out from the molar mass of the structure shown.
Tests used:
Format in all cases: cell-based
S. aureus CJ247 = test: MIC, agar diffusion, S. aureus CJ247; details: Staphylococcus aureus, read-out: in vitro activities MIC
From the text: (§1) In vitro investigations have shown a relatively high potency of compounds of the invention against all bacteria including gram-positive and gram-negative strains (Staphylococci, Streptococci, Corynebacteriae, Mycobacteriae, Proteus, Propionibacterium, Pseudomonas, Neisseriae, E. coli) and fungal strains (Candida and Aspergillus). […] In addition, the studies of post-antibiotic effects point towards a strong bactericidal effect of the compounds of the invention. […] The potency of new polyaminated fusidic acid analogues is estimated by comparing the inhibition of growth of different microorganisms produced by known concentrations of the analogue to be examined and a reference compound such as fusidic acid. The microbiological assay set up is in agreement with the European Pharmacopoeia 3rd edition (1997). It is an agar diffusion method where the same volume of the tested solution is added to cavities in agar. The inhibition zones are function of the concentration of the fusidic acid analogue used. All assays are run with fusidic acid as reference substance.

S. aureus CJ200 = test: MIC, agar diffusion, S. aureus CJ200; details: Staphylococcus aureus, read-out: in vitro activities MIC
From the text: as §1

S. aureus CJ234F = test: MIC, agar diffusion, S. aureus CJ234F; details: Staphylococcus aureus; S. aureus CJ234F (MRSA, Fus. resistant); read-out: in vitro activities MIC
From the text: as §1

S. aureus N6 = test: MIC, agar diffusion, S. aureus N6; details: Staphylococcus aureus; S. aureus N6 (Fus. resistant); read-out: in vitro activities MIC
From the text: as §1

S. epidermis CK5 = test: MIC, agar diffusion, S. epidermis CK5; details: Staphylococcus epidermidis, read-out: in vitro activities MIC
From the text: as §1

[1] = tested on: Propionibacterium acnes FN33; test: MIC, agar diffusion, Propionibacterium acnes FN33; details: Cutibacterium acnes, read-out: in vitro activities MIC
From the text: as §1

[2] = tested on: Corynebacterium xerosis FF; test: MIC, agar diffusion, Corynebacterium xerosis FF; details: read-out: in vitro activities MIC
From the text: as §1

[3] = tested on: Streptococcus pyogenes EC88; test: MIC, agar diffusion, Streptococcus pyogenes EC88; details: read-out: in vitro activities MIC
From the text: as §1

[4] = tested on: Streptococcus faecium EI19; test: MIC, agar diffusion, Streptococcus faecium EI19; details: Enterococcus faecium; Streptococcus faecium EI19 (Penicillin resistant); read-out: in vitro activities MIC
From the text: as §1

E. coli HA165 = test: MIC, agar diffusion, E. coli HA165; details: Escherichia coli, read-out: in vitro activities MIC
From the text: as §1

[5] = tested on: Saccaromyces cervisiae ZZ7; test: MIC, agar diffusion, Saccaromyces cervisiae ZZ7; details: Saccharomyces cerevisiae, read-out: in vitro activities MIC
From the text: as §1

Candida albicans ZA = test: MIC, agar diffusion, Candida albicans ZA; details: read-out: in vitro activities MIC
From the text: as §1

Asbergillus niger ZM35 = test: MIC, agar diffusion, Asbergillus niger ZM35; details: Aspergillus niger, read-out: in vitro activities MIC
From the text: as §1

[6] = tested on: Pseudomonas aeruginosa BA17; test: MIC, agar diffusion, Pseudomonas aeruginosa BA17; details: read-out: in vitro activities MIC
From the text: as §1

CC(=O)O[C@H]1C[C@@]2(C)C(C[C@@H](O)C3[C@@]4(C)CC[C@@H](O)[C@@H](C)C4CC[C@@]32C)[C@@H]1[C@H](CCCC(C)C)C(=O)NCCCCNCCCN (stereo partly drawn) [Compound 121, 21-N-{4′-[(3′-aminopropyl)amino]butyl}-17R,20S,24,25-tetrahydrofusid-21-amide]
MIC (S. aureus CJ247): 4 µg/mL (≈ 6.17 µM) | MIC (S. aureus CJ200): 4 µg/mL (≈ 6.17 µM) | MIC (S. aureus CJ234F): 4 µg/mL (≈ 6.17 µM) | MIC (S. aureus N6): 16 µg/mL (≈ 24.7 µM) | MIC (S. epidermis CK5): 4 µg/mL (≈ 6.17 µM) | MIC [1]: 4 µg/mL (≈ 6.17 µM) | MIC [2]: 4 µg/mL (≈ 6.17 µM) | MIC [3]: 16 µg/mL (≈ 24.7 µM) | MIC [4]: 16 µg/mL (≈ 24.7 µM) | MIC (E. coli HA165): 16 µg/mL (≈ 24.7 µM) | MIC [5]: 16 µg/mL (≈ 24.7 µM) | MIC (Candida albicans ZA): 16 µg/mL (≈ 24.7 µM) | MIC (Asbergillus niger ZM35): 64 µg/mL (≈ 98.8 µM)

CC(=O)O[C@H]1C[C@@]2(C)C(C[C@@H](O)C3[C@@]4(C)CC[C@@H](O)[C@@H](C)C4CC[C@@]32C)[C@@H]1[C@H](CCCC(C)C)C(=O)NCCCCNCCCNCCCCN (stereo partly drawn) [Compound 123, 21-N-[4′-({3′-[(4′-aminobutyl)amino]propyl}amino)butyl]-17R,20S,24,25-tetrahydrofasid-21-amide]
MIC (S. aureus CJ247): 4 µg/mL (≈ 5.56 µM) | MIC (S. aureus CJ200): 4 µg/mL (≈ 5.56 µM) | MIC (S. aureus CJ234F): 4 µg/mL (≈ 5.56 µM) | MIC (S. aureus N6): 4 µg/mL (≈ 5.56 µM) | MIC (S. epidermis CK5): 4 µg/mL (≈ 5.56 µM) | MIC [1]: 4 µg/mL (≈ 5.56 µM) | MIC [2]: 4 µg/mL (≈ 5.56 µM) | MIC [3]: 4 µg/mL (≈ 5.56 µM) | MIC [4]: 4 µg/mL (≈ 5.56 µM) | MIC (E. coli HA165): 16 µg/mL (≈ 22.2 µM) | MIC [6]: 16 µg/mL (≈ 22.2 µM) | MIC [5]: 16 µg/mL (≈ 22.2 µM) | MIC (Candida albicans ZA): 16 µg/mL (≈ 22.2 µM) | MIC (Asbergillus niger ZM35): 4 µg/mL (≈ 5.56 µM)

CC(=O)O[C@H]1C[C@@]2(C)C(C[C@@H](O)C3[C@@]4(C)CC[C@@H](O)[C@@H](C)C4CC[C@@]32C)[C@@H]1[C@H](CCCC(C)C)C(=O)NCCCNCCCCNCCCN (stereo partly drawn) [Compound 125, 21-N-[3′-({4′-[(3′-aminopropyl)amino]butyl}amino)propyl]-17R,20S,24,25-tetrahydrofusid-21-amide]
MIC (S. aureus CJ247): 1 µg/mL (≈ 1.42 µM) | MIC (S. aureus CJ200): 1 µg/mL (≈ 1.42 µM) | MIC (S. aureus CJ234F): 1 µg/mL (≈ 1.42 µM) | MIC (S. aureus N6): 1 µg/mL (≈ 1.42 µM) | MIC (S. epidermis CK5): 1 µg/mL (≈ 1.42 µM) | MIC [1]: 1 µg/mL (≈ 1.42 µM) | MIC [2]: 1 µg/mL (≈ 1.42 µM) | MIC [3]: 4 µg/mL (≈ 5.67 µM) | MIC [4]: 16 µg/mL (≈ 22.7 µM) | MIC (E. coli HA165): 16 µg/mL (≈ 22.7 µM) | MIC [6]: 16 µg/mL (≈ 22.7 µM) | MIC [5]: 16 µg/mL (≈ 22.7 µM) | MIC (Candida albicans ZA): 16 µg/mL (≈ 22.7 µM) | MIC (Asbergillus niger ZM35): 16 µg/mL (≈ 22.7 µM)

CC(=O)O[C@H]1C[C@@]2(C)C(CCC3[C@@]4(C)CC[C@@H](O)[C@@H](C)C4CC[C@@]32C)[C@@H]1[C@H](CCCC(C)C)C(=O)NCCCNCCCN (stereo partly drawn) [Compound 131]
MIC (S. aureus CJ247): 4 µg/mL (≈ 6.47 µM) | MIC (S. aureus CJ200): 4 µg/mL (≈ 6.47 µM) | MIC (S. aureus CJ234F): 4 µg/mL (≈ 6.47 µM) | MIC (S. aureus N6): 4 µg/mL (≈ 6.47 µM) | MIC (S. epidermis CK5): 4 µg/mL (≈ 6.47 µM) | MIC [1]: 4 µg/mL (≈ 6.47 µM) | MIC [2]: 4 µg/mL (≈ 6.47 µM) | MIC [3]: 4 µg/mL (≈ 6.47 µM) | MIC [4]: 4 µg/mL (≈ 6.47 µM) | MIC (E. coli HA165): 16 µg/mL (≈ 25.9 µM) | MIC [6]: 4 µg/mL (≈ 6.47 µM) | MIC [5]: 16 µg/mL (≈ 25.9 µM) | MIC (Candida albicans ZA): 16 µg/mL (≈ 25.9 µM) | MIC (Asbergillus niger ZM35): 16 µg/mL (≈ 25.9 µM)

CC(=O)O[C@H]1C[C@@]2(C)C(CCC3[C@@]4(C)CC[C@@H](O)[C@@H](C)C4CC[C@@]32C)[C@@H]1[C@H](CCCC(C)C)C(=O)NCCNCCCNCCN (stereo partly drawn) [Compound 133]
MIC (S. aureus CJ247): 4 µg/mL (≈ 6.18 µM) | MIC (S. aureus CJ200): 4 µg/mL (≈ 6.18 µM) | MIC (S. aureus CJ234F): 4 µg/mL (≈ 6.18 µM) | MIC (S. aureus N6): 4 µg/mL (≈ 6.18 µM) | MIC (S. epidermis CK5): 4 µg/mL (≈ 6.18 µM) | MIC [1]: 4 µg/mL (≈ 6.18 µM) | MIC [2]: 4 µg/mL (≈ 6.18 µM) | MIC [3]: 4 µg/mL (≈ 6.18 µM) | MIC [4]: 4 µg/mL (≈ 6.18 µM) | MIC (E. coli HA165): 16 µg/mL (≈ 24.7 µM) | MIC [6]: 16 µg/mL (≈ 24.7 µM) | MIC [5]: 32 µg/mL (≈ 49.5 µM) | MIC (Candida albicans ZA): 32 µg/mL (≈ 49.5 µM) | MIC (Asbergillus niger ZM35): 32 µg/mL (≈ 49.5 µM)

CC(C)CCCC(C(=O)NCCNCCCNCCN)[C@H]1CC[C@@]2(C)C1CCC1[C@@]3(C)CC[C@@H](O)[C@@H](C)C3CC[C@@]12C (stereo partly drawn) [Compound 152, 21-N-[2′-({3′-[(2′-aminoethyl)amino]propyl}amino)ethyl]-11-desoxy-16-desacetoxy-17S,20,24,25-tetrahydrofusid-21-amide]
MIC (S. aureus CJ247): 4 µg/mL (≈ 6.79 µM) | MIC (S. aureus CJ200): 4 µg/mL (≈ 6.79 µM) | MIC (S. aureus CJ234F): 4 µg/mL (≈ 6.79 µM) | MIC (S. aureus N6): 4 µg/mL (≈ 6.79 µM) | MIC (S. epidermis CK5): 2 µg/mL (≈ 3.4 µM) | MIC [2]: 1 µg/mL (≈ 1.7 µM) | MIC (E. coli HA165): 4 µg/mL (≈ 6.79 µM) | MIC [6]: 8 µg/mL (≈ 13.6 µM) | MIC [5]: > 125 µg/mL | MIC (Candida albicans ZA): > 125 µg/mL | MIC (Asbergillus niger ZM35): > 125 µg/mL

CC(C)CCCC(C(=O)NCCCCNCCCN)[C@H]1CC[C@@]2(C)C1CCC1[C@@]3(C)CC[C@@H](O)[C@@H](C)C3CC[C@@]12C (stereo partly drawn) [Compound 154, 21-N-{4′-[(3′-aminopropyl)amino]butyl}-11-desoxy-16-desacetoxy-17S,20,24,25-tetrahydrofusid-21-amide]
MIC (S. aureus CJ247): 4 µg/mL (≈ 6.97 µM) | MIC (S. aureus CJ200): 4 µg/mL (≈ 6.97 µM) | MIC (S. aureus CJ234F): 4 µg/mL (≈ 6.97 µM) | MIC (S. aureus N6): 4 µg/mL (≈ 6.97 µM) | MIC (S. epidermis CK5): 1 µg/mL (≈ 1.74 µM) | MIC [2]: 0.5 µg/mL (≈ 0.871 µM) | MIC (E. coli HA165): 8 µg/mL (≈ 13.9 µM) | MIC [6]: 16 µg/mL (≈ 27.9 µM) | MIC [5]: > 125 µg/mL | MIC (Candida albicans ZA): > 125 µg/mL | MIC (Asbergillus niger ZM35): > 125 µg/mL

CC(=O)O[C@H]1C[C@@]2(C)C(CCC3[C@@]4(C)CC[C@@H](OS(=O)(=O)O)[C@@H](C)C4CC[C@@]32C)[C@@H]1[C@H](CCCC(C)C)C(=O)NCCCNCCCCNCCCN (stereo partly drawn) [Compound 177, 21-N-[3′-({4′-[(3′-aminopropyl)amino]butyl}amino)propyl]-3-OSO3-11-desoxy-17,20,24,25-tetrahydrofusid-21-amide]
MIC (S. aureus CJ247): 1 µg/mL (≈ 1.3 µM) | MIC (S. aureus CJ200): 1 µg/mL (≈ 1.3 µM) | MIC (S. aureus CJ234F): 1 µg/mL (≈ 1.3 µM) | MIC (S. aureus N6): 4 µg/mL (≈ 5.2 µM) | MIC (S. epidermis CK5): 1 µg/mL (≈ 1.3 µM) | MIC [1]: 1 µg/mL (≈ 1.3 µM) | MIC [2]: 1 µg/mL (≈ 1.3 µM) | MIC [3]: 4 µg/mL (≈ 5.2 µM) | MIC (E. coli HA165): 16 µg/mL (≈ 20.8 µM) | MIC [6]: 16 µg/mL (≈ 20.8 µM) | MIC [5]: 125 µg/mL (≈ 163 µM) | MIC (Candida albicans ZA): 64 µg/mL (≈ 83.2 µM) | MIC (Asbergillus niger ZM35): 16 µg/mL (≈ 20.8 µM)

CC(=O)O[C@H]1C[C@@]2(C)C(CCC3[C@@]4(C)CC[C@@H](OS(=O)(=O)O)[C@@H](C)C4CC[C@@]32C)[C@@H]1[C@H](CCCC(C)C)C(=O)NCCCNCCCNCCCN (stereo partly drawn) [Compound 180]
MIC (S. aureus CJ247): 1 µg/mL (≈ 1.32 µM) | MIC (S. aureus CJ200): 1 µg/mL (≈ 1.32 µM) | MIC (S. aureus CJ234F): 1 µg/mL (≈ 1.32 µM) | MIC (S. aureus N6): 1 µg/mL (≈ 1.32 µM) | MIC (S. epidermis CK5): 4 µg/mL (≈ 5.3 µM) | MIC [1]: 1 µg/mL (≈ 1.32 µM) | MIC [2]: 1 µg/mL (≈ 1.32 µM) | MIC [3]: 16 µg/mL (≈ 21.2 µM) | MIC (E. coli HA165): 16 µg/mL (≈ 21.2 µM) | MIC [6]: 64 µg/mL (≈ 84.8 µM) | MIC [5]: 125 µg/mL (≈ 166 µM) | MIC (Candida albicans ZA): 64 µg/mL (≈ 84.8 µM) | MIC (Asbergillus niger ZM35): 4 µg/mL (≈ 5.3 µM)

From US20030087887A1, “Novel fusidic acid derivatives” (priority 2001, published 2003)
